# Experimental data reported in publication PMC5867665, “Targeting Multiple Effector Pathways in Pancreatic Ductal Adenocarcinoma with a G-Quadruplex-Binding Small Molecule” (Journal of Medicinal Chemistry, 2018).
# Experiments:
# PANC-1 cells = test: BG4 and 53BP1 immunofluorescence microscopy; assay type: cell-based, human
# From the text: Because many established G4-stabilizing ligands induce transcription and replication-coupled DNA damage in the vicinity of G4-forming sequences,[44] we investigated whether CM03 treatment affects cellular G4 occurrence and/or induces a DNA damage response. To do this, we treated asynchronous PANC-1 cells with CM03 and performed immunofluorescence staining using the G4-specific antibody BG4[18] and an antibody against the DNA damage and double-strand break (DSB) marker 53BP1[45] followed by 3D image construction and analysis. […] This further confirms that CM03 has a direct action at G4 sites to increase G4 stabilization. Consistent with the capability of unresolved endogenous genomic G4 sites[46] and small molecule-stabilized G4s to obstruct DNA replication,[44] a 2-fold increase in the number of 53BP1 foci was only apparent after 24 h treatment with CM03 (11 ± 2 compared to 21 ± 3 53BP1 foci) (Figure 4a,c). To determine if CM03 induced DNA damage directly at G4 sites, we calculated the extent of co-localization between BG4 and 53BP1 foci using object-based image co-localization analysis.
# BG4 and 53BP1 immunofluorescence experiments were performed essentially as described,[16],[18] with slight modifications. In brief, 8 × 10^4 PANC-1 cells were seeded overnight on circular no. 1.5 coverslips per well in 12-well plates. Next day, cells were incubated with 400 nM CM03 (or left untreated) in 1 mL of media at 37 °C for 6 and 24 h and then fixed with 4 (v/v) % freshly prepared paraformaldehyde in 1× PBS for 10 min at RT. Coverslips were washed 1× PBS, permeabilized with 0.1% (v/v) Triton-X100 in PBS for 10 min, washed with 1× PBS, and blocked with 2% (w/v) Marvel milk (Premier Foods plc) in PBS for 1 h at 37 °C. After blocking, coverslips were incubated with BG4 (20 nM) at 37 °C for 1 h, washed three times for 5 min with PBST (0.1% (v/v) Tween 20), and then incubated with 37 °C for 1 h with rabbit α-FLAG 1:800 (CST, catalogue no. 2368) and mouse α-53BP1 1:500 (Millipore, catalogue no. MAB2803). […] Fluorescence illumination was with a xenon source and FITC, Cy5, and DAPI fluorescent filter cubes used to image BG4, 53BP1, and the nuclei, respectively. […] See extended methods, immunofluorescence, for the custom protocol designed for the BG4-53BP1 foci quantification and co-localization method. […]
# For the putative G4 sequences (PQs) analysis, the occurrence of the canonical G4 motif (G≥3N1-7G≥3+N1-7G3≥N1-7G≥3), as previously defined 2,3, was calculated both in gene promoters (defined as 2 kilobases upstream of the transcription start site (TSS) and 100 bases downstream ) and gene bodies (exons and introns). […]
# [1] = tested on: fetal lung fibroblast-like nononcogenic control cell line (WI-38); test: 96 h SRB growth inhibition assay, WI-38; assay type: cell-based, human
# Protocol: Compounds were screened with a 96 h SRB (sulforhodamine B) assay for their antiproliferative activity in a panel of human cancer cell lines comprising lung adenocarcinoma (A549), breast adenocarcinoma (MCF7), and PDAC (MIA PaCa-2 and PANC-1) cell lines, as well as a fetal lung fibroblast-like nononcogenic control cell line (WI-38) (Figure 1f). […] Gemcitabine is also active in these lines at low nanomolar levels, although less so in MIA PaCa-2 (IC50 19 ± 5 nM) and more so in BX-PC3 cells (6 ± 2 nM).
# All cell lines were purchased from ATCC and maintained in appropriate medium supplemented with 10% fetal bovine serum (Invitrogen, UK), 2 mM L-glutamine (Invitrogen, Netherlands), and other components as specified by the suppliers. Cell lines were maintained at 37 °C, 5% CO2, and routinely passaged. Drugs were dissolved in H2O and filtered through 0.22 μm pore-size filter units (stock 10 mM) before addition to appropriate cell line media. Cellular growth inhibition was measured using the sulforhodamine B (SRB) assay in 96-well plates as described previously.[78] The 50% inhibitory concentrations (IC50) were determined by taking the mean absorbance at 540 nm for each drug concentration expressed as a percentage of the absorbance of untreated control wells.
smiles,measurement,setting,value
"O=C1c2ccc3c4c(c(NCCN5CCCC5)cc(c24)C(=O)N1CCCN1CCOCC1)C(=O)N(CCCN1CCOCC1)C3=O [CM03, 2,7-bis(3-morpholinopropyl)-4-((2-(pyrrolidin-1-yl)ethyl)amino)benzo[lmn][3,8]phenanthroline-1,3,6,8(2H,7H)-tetraone]",number of nuclear BG4 foci,"PANC-1 cells; 400 nM CM03, 6 h",393 ± 13
same,number of 53BP1 foci,"PANC-1 cells; 400 nM CM03, 24 h",21 ± 3
same,number of nuclear BG4 foci,"PANC-1 cells; 400 nM CM03, 24 h",444 ± 39
same,total BG4 foci per nucleus associated with DNA damage foci,"PANC-1 cells; 400 nM CM03, 24 h",1.4%
same,less activity toward the WI-38 cell line (vs MM41),[1],> 4 fold
